How the values were obtained:
Conditions in all cases: Compound concentration 1.0 uM
[1] = molecular target: Aurora kinase B (Homo sapiens) (UniProt Q96GD4); experiment: Aurora-B(h) Eurofins kinase panel
[2] = molecular target: Protein-tyrosine kinase 6 (Homo sapiens) (UniProt Q13882); experiment: BRK(h) Eurofins kinase panel
[3] = molecular target: Tyrosine-protein kinase BTK (Homo sapiens) (UniProt Q06187); experiment: BTK(h) Eurofins kinase panel
[4] = molecular target: Calcium/calmodulin-dependent protein kinase type 1 (Homo sapiens) (UniProt Q14012); experiment: CaMKI(h) Eurofins kinase panel
[5] = molecular target: CDK9/cyclin T1 (Homo sapiens) (UniProt O60563+P50750); experiment: CDK9/cyclin T1(h) Eurofins kinase panel; format: protein-complex assay
[6] = molecular target: Receptor tyrosine-protein kinase erbB-2 (Homo sapiens) (UniProt P04626); experiment: ErbB2(h) Eurofins kinase panel
[7] = molecular target: Fibroblast growth factor receptor 3 (Homo sapiens) (UniProt P22607); experiment: FGFR3(h) Eurofins kinase panel
[8] = molecular target: T1, Inhibitor of nuclear factor kappa-B kinase subunit beta (Homo sapiens) (UniProt O14920); experiment: IKKbeta(h) Eurofins kinase panel
T1 sequence (whole entry): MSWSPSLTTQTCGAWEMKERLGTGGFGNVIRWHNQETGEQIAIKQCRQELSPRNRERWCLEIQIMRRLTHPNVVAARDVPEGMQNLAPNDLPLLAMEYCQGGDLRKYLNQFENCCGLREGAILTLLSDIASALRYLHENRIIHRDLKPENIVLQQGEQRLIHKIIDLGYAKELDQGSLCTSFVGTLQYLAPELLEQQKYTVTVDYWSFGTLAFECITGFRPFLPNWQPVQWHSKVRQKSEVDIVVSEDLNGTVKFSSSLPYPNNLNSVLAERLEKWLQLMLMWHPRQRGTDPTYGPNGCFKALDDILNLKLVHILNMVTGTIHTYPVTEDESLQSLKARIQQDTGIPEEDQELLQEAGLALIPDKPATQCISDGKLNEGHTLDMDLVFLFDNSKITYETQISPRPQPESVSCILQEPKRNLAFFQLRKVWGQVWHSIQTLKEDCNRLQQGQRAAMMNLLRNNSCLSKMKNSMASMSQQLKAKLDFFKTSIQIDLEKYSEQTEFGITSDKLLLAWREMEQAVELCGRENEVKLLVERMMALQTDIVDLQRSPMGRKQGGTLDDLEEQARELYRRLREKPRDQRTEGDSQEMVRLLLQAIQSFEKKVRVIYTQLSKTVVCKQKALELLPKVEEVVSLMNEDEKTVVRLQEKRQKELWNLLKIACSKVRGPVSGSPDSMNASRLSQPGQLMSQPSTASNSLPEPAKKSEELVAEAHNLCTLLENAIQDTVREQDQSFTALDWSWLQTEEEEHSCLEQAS

[9] = molecular target: MAP kinase-interacting serine/threonine-protein kinase 2 (Homo sapiens) (UniProt Q9HBH9); experiment: Mnk2(h) Eurofins kinase panel
[10] = molecular target: T2, Serine/threonine-protein kinase Nek9 (Homo sapiens) (UniProt Q8TD19); experiment: NEK9(h) Eurofins kinase panel
T2 sequence (whole entry): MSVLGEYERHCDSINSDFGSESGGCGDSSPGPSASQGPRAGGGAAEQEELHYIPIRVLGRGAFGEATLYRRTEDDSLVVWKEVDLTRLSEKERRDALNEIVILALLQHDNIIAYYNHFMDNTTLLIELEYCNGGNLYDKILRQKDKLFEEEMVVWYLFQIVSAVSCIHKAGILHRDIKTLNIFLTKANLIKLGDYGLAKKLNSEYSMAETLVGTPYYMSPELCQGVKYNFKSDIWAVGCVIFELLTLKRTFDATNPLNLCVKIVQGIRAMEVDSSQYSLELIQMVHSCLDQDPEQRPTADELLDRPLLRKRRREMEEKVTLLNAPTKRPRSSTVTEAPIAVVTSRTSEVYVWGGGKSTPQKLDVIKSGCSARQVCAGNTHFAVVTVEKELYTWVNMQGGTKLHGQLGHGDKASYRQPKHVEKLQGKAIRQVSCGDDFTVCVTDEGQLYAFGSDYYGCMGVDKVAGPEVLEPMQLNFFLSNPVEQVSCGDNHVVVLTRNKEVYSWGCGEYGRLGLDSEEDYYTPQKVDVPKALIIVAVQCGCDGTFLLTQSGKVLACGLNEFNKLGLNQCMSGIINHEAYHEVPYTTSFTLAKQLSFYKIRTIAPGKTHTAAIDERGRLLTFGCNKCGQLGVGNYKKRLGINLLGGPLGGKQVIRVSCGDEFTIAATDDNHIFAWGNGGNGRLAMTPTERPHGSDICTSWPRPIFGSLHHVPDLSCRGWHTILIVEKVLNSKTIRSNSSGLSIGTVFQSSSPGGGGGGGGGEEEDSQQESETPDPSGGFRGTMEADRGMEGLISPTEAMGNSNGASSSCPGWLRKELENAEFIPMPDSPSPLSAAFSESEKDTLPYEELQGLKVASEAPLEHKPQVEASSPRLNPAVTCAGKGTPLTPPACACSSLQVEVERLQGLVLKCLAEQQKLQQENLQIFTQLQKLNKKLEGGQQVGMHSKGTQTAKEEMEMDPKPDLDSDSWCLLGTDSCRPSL

[11] = molecular target: Serine/threonine-protein kinase PLK2 (Homo sapiens) (UniProt Q9NYY3); experiment: Snk(h) Eurofins kinase panel
[12] = molecular target: Testis-specific serine/threonine-protein kinase 2 (Homo sapiens) (UniProt Q96PF2); experiment: TSSK2(h) Eurofins kinase panel
[13] = molecular target: T3, Serine/threonine-protein kinase ULK3 (Homo sapiens) (UniProt Q6PHR2); experiment: ULK3(h) Eurofins kinase panel
T3 sequence (whole entry): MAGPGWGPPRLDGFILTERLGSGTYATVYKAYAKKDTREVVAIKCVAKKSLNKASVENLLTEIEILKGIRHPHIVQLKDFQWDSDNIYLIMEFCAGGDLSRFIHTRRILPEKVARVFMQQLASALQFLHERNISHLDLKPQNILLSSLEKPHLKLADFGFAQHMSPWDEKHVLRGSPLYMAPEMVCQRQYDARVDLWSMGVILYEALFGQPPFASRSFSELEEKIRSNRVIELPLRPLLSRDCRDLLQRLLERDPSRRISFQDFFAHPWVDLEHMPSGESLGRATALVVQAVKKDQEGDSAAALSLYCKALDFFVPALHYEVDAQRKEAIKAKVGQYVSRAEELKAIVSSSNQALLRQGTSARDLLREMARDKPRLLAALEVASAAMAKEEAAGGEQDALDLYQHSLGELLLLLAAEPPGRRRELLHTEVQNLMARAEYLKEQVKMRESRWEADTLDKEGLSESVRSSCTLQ

[14] = molecular target: PI3-kinase p110-delta/p85-alpha (Homo sapiens) (UniProt P27986+O00329); experiment: PI3 Kinase(p110d/p85a)(h) Eurofins kinase panel; format: protein-complex assay
[15] = molecular target: PI3-kinase p110-alpha/p85-alpha (Homo sapiens) (UniProt P27986+P42336); experiment: PI3 Kinase(p110a/p85a)(h) Eurofins kinase panel; format: protein-complex assay

Measured: % residual kinase activity

Sequence of MAP kinase-interacting serine/threonine-protein kinase 2 (Homo sapiens) (Q9HBH9 whole entry, looked up): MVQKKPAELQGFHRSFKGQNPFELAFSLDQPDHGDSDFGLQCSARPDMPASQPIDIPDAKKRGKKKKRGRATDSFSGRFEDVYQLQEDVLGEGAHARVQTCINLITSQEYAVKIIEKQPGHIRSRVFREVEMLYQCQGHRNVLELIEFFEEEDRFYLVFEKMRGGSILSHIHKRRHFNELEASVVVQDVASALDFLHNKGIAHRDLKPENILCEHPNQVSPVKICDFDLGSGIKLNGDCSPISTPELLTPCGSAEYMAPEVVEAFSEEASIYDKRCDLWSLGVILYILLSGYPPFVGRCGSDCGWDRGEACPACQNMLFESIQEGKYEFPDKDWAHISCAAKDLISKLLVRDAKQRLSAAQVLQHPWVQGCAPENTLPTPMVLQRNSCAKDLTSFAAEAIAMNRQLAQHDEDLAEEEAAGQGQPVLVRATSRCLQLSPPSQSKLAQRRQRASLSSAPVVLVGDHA
Sequence of Testis-specific serine/threonine-protein kinase 2 (Homo sapiens) (Q96PF2 whole entry): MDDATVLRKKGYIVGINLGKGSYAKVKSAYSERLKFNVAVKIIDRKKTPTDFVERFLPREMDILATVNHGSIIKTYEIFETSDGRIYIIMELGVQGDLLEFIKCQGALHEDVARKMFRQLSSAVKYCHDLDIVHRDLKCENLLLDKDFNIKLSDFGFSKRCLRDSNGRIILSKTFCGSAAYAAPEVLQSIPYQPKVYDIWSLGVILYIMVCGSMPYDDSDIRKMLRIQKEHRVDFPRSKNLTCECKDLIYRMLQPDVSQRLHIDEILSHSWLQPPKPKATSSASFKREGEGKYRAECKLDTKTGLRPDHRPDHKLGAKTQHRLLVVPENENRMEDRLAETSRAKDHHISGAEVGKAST
Sequence of Tyrosine-protein kinase BTK (Homo sapiens) (Q06187 whole entry): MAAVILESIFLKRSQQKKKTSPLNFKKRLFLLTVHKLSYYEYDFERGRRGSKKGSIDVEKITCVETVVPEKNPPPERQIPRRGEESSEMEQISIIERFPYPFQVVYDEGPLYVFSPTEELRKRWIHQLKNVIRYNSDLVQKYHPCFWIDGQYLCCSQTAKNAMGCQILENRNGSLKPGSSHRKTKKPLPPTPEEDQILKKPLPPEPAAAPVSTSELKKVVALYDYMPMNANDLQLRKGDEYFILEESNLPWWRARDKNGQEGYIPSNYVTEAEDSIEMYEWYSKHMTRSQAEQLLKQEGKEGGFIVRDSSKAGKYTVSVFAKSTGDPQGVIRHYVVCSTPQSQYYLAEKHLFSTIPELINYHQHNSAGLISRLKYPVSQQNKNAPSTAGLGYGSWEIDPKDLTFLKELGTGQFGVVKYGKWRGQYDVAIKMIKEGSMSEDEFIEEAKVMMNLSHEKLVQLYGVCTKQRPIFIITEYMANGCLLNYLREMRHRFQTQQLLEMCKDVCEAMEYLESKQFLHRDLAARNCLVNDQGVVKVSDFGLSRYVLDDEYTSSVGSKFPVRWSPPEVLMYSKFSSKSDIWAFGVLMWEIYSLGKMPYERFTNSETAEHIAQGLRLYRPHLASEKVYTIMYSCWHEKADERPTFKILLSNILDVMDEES
Sequence of Fibroblast growth factor receptor 3 (Homo sapiens) (P22607 23-806 limits assumed): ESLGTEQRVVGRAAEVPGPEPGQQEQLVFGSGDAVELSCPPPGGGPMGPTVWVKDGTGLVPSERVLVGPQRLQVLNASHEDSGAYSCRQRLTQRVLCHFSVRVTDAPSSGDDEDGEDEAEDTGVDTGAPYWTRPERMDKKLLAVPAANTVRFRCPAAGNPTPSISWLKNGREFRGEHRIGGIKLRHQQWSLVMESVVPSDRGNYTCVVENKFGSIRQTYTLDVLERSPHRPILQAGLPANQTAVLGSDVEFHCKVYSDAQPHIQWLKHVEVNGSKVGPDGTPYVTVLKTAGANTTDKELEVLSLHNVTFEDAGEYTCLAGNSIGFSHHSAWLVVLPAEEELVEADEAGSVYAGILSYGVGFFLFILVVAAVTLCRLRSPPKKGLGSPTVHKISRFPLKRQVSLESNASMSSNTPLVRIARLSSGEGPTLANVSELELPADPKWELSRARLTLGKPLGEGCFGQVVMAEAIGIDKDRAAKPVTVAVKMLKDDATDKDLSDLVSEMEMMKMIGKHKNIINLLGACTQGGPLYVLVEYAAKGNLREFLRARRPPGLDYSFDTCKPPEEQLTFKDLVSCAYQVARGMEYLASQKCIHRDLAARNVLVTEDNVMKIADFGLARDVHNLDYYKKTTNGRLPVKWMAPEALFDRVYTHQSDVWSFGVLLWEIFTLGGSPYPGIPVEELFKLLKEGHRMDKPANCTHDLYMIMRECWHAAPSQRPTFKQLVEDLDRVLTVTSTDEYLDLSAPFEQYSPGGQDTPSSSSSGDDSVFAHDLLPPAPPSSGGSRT
Sequence of Protein-tyrosine kinase 6 (Homo sapiens) (Q13882 whole entry, looked up): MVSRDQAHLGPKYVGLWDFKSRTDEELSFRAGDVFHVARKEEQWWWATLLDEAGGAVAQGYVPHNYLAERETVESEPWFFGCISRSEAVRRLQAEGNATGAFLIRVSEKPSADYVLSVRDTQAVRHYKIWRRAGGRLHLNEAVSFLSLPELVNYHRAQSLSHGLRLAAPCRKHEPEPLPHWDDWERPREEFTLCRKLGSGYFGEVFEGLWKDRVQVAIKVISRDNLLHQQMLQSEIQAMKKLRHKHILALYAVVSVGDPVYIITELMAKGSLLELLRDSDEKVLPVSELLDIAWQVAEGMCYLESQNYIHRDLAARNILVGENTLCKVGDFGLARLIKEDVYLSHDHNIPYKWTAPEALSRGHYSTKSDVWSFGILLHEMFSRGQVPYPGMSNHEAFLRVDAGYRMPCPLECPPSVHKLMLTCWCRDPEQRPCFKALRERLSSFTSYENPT
Sequence of Aurora kinase B (Homo sapiens) (Q96GD4 whole entry): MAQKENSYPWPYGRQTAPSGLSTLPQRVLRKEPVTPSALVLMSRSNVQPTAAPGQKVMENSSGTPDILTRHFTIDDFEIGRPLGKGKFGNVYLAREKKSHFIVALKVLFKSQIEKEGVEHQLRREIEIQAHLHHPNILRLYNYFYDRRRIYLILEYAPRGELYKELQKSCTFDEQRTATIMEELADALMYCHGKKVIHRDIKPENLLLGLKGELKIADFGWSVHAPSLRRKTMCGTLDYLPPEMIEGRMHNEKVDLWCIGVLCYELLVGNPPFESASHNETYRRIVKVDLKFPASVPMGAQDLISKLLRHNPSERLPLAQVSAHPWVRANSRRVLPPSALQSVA
Sequence of Serine/threonine-protein kinase PLK2 (Homo sapiens) (Q9NYY3 whole entry, looked up): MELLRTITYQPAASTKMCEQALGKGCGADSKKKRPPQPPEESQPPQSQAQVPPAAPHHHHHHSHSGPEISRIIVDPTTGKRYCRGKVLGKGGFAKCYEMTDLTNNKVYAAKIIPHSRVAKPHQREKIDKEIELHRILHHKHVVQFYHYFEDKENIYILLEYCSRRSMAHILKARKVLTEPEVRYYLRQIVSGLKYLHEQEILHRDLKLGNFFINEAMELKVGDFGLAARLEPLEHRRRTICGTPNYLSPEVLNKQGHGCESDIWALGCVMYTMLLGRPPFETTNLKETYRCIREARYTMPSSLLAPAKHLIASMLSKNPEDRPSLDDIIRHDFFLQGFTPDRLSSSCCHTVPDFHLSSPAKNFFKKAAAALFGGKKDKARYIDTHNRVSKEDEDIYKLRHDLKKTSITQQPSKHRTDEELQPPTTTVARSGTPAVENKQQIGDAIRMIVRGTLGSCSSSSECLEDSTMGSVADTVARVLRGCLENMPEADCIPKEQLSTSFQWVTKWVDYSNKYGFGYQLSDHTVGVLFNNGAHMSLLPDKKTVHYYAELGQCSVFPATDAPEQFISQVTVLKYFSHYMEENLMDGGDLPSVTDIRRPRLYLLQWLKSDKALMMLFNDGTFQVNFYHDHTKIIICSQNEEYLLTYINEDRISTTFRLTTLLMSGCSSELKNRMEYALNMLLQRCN
Sequence of Calcium/calmodulin-dependent protein kinase type 1 (Homo sapiens) (Q14012 whole entry, looked up): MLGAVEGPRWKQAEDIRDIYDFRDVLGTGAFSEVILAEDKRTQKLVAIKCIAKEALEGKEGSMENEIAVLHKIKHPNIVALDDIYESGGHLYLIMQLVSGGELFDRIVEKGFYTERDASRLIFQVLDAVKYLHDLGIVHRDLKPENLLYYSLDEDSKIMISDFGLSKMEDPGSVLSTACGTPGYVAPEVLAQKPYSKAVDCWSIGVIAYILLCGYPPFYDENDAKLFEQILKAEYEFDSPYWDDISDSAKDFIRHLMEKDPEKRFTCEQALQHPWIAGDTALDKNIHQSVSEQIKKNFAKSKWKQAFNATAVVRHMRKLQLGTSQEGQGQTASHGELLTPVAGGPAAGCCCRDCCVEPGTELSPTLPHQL

CCc1ccccc1C(=O)Nc1n[nH]c2c(C)c(F)c(C3C(C#N)=C(C)N(C)C(C)=C3C#N)cc12 [BAY-3827]
inactive: [1] 76% | [2] 104% | [3] 96% | [4] 93% | [5] 91% | [6] 95% | [7] 99% | [8] 106% | [9] 110% | [10] 47% | [11] 100% | [12] 105% | [13] 59% | [14] 103% | [15] 99%
